According to patent US3930838A, “S-benzyl-N,N-disec-butylthiocarbamate and its use as a rice field herbicide and a rice growth stimulant” (priority 1970, dated 1976):

Key:
Echinocloa crus galli = test: Weeding activity in screening conditions (Example 12); assay type: in vivo; conditions: 25 days
From the text: (§1) Two sets of small square tanks having 11 cm. sides, filled with field earth admixed with 30% of sand, were sowed at a depth of 0.5-1 cm. with the following grass species: Echinocloa crus galli, Setaria italica, Alopecurus myosiuroides, Lolium italicum, Digitaria sanguinalis, Avena fatua, Agrostis segetum, and Dactylis glomerata. After sowing, the earth surface of the tanks was uniformly sprayed with 2.4 cc./tank of hydroacetone solutions containing, respectively, 0, 0.05, 0.10, 0.20 and 0.30% of M3432 and of molinate, respectively, in order to obtain doses thereof corresponding to 0, 1, 2, 4, and 6 kg./ha., respectively.
(§2) Only one set of small tanks was covered with a 1 cm. layer of earth just after the treatment. All of the tanks were kept in an air-conditioned chamber identical with that described in Example 7, and were watered every day. 25 days after the treatment, the final results were examined, attributing to each treatment the following scale of values: […]

Dactylis glomerata = test: as above; assay type: in vivo; conditions: 25 days
From the text: as §1, §2

Setaria italica = test: as above; assay type: in vivo; conditions: 25 days
From the text: as §1, §2

rice [1] = test: Open field test on rice, biometric controls (Example 10); assay type: in vivo, rice cv. RIBE; conditions: 36 days
Method: (§3) In the province of Novara, Italy, a test was performed outdoors in clay soil. For each treatment, a 600 m^2 plot provided with independent water feed was prepared. After soil working and leveling, the treatment was effected on Apr. 23, 1970, using formulations in emulsifiable oils of M3432 and of molinate, sprayed by means of mechanical devices. Only the plot treated with molinate was harrowed just after treatment in order to incorporate the product and to avoid any losses of same due to volatilization. Immediately afterwards, the plots were flooded to a water level of 10-12 cm.
(§4) Pre-germinated cv. RIBE rice was mechanically sowed broadcast on Apr. 25, 1970.
36 Days after the treatment, 50 rice plants were taken at random from each plot and subjected to biometric controls.

Agrostis segetum = test: Weeding activity in screening conditions (Example 12); assay type: in vivo; set-up: scale not given here; conditions: 25 days
From the text: as §1, §2

Lolium italicum = test: as above; assay type: in vivo; set-up: scale not given here; conditions: 25 days
From the text: as §1, §2

Avena fatua = test: as above; assay type: in vivo; set-up: scale not given here; conditions: 25 days
From the text: as §1, §2

Digitaria sanguinalis = test: as above; assay type: in vivo; set-up: scale not given here; conditions: 25 days
From the text: as §1, §2

Alopecurus myosiuroides = test: as above; assay type: in vivo; set-up: scale not given here; conditions: 25 days
From the text: as §1, §2

rice [2] = test: Comparative selectivity test on rice in submerged culture, air-conditioned atmosphere (Example 7); assay type: in vivo; conditions: 24 days
Method: Into a set of cylindrical pots having a 200 cm^2 internal surface, sieved rice field earth in a quantity of 1 kg. per pot was introduced. After leveling and wetting with 200 cc. of water, the earth surface of the pots was uniformly sprayed with hydroacetone solutions containing, respectively, 0, 0.2, 0.3, and 0.4% active product (a.p.). 4 Ml. of the solution were sprayed onto each pot, so that the amount of active product in a set of four pots was 0, 4, 6, and 8 kg./ha., respectively. Immediately after spraying, each pot was filled with water to a level of 7 cm. over the soil surface. Thereafter, the sowing was carried out at the rate of 15 pre-germinated rice seeds per pot. Three repetitions were performed for each treatment. The pots were kept in an air-conditioned atmosphere with a daily temperature variation between 10° and 25°C and a 14 hour per day light period. After 24 days, the percentage of sprouted plants and the length of the shoot were recorded.

Rice plants = test: Open field test on rice, periodical checks of the plots (Example 10); assay type: in vivo, rice cv. RIBE; conditions: two months
Method: as §3, §4
Periodical checks were carried out on the four plots. […]

[3] = Treated surface covered with 1 cm earth layer, 2 kg./ha.
[4] = Treated surface covered with 1 cm earth layer, 4 kg./ha.
[5] = Treated surface covered with 1 cm earth layer, 6 kg./ha.

## CCC(C)N(C(=O)SCc1ccccc1)C(C)CC (stereo not drawn) [M3432, S-benzyl-N,N-disec.butylthiocarbamate]
Echinocloa crus galli; Surface, 1 kg./ha.
  Weeding activity: 3
Echinocloa crus galli; Surface, 2 kg./ha.
  Weeding activity: 3/4
Echinocloa crus galli; Surface, 4 kg./ha.
  Weeding activity: 4/3
Echinocloa crus galli; Surface, 6 kg./ha.
  Weeding activity: 4
Echinocloa crus galli; [3]
  Weeding activity: 4/3
Echinocloa crus galli; [4]
  Weeding activity: 4
Echinocloa crus galli; [5]
  Weeding activity: 4
Dactylis glomerata; Surface, 1 kg./ha.
  Weeding activity: 3/4
Dactylis glomerata; Surface, 2 kg./ha.
  Weeding activity: 4
Dactylis glomerata; Surface, 4 kg./ha.
  Weeding activity: 4/3
Dactylis glomerata; Surface, 6 kg./ha.
  Weeding activity: 4
Dactylis glomerata; [3]
  Weeding activity: 4
Dactylis glomerata; [4]
  Weeding activity: 4
Dactylis glomerata; [5]
  Weeding activity: 4
Setaria italica; Surface, 1 kg./ha.
  Weeding activity: 3
Setaria italica; Surface, 2 kg./ha.
  Weeding activity: 3
Setaria italica; Surface, 4 kg./ha.
  Weeding activity: 4/3
Setaria italica; Surface, 6 kg./ha.
  Weeding activity: 4/3
Setaria italica; [3]
  Weeding activity: 3/4
Setaria italica; [4]
  Weeding activity: 4/3
Setaria italica; [5]
  Weeding activity: 4
Rice [1]; 4 kg./ha.
  Main root: 9.29 cm.
  Roots, average weight per plant on dry basis: 2.431 g
  Secondary roots: 9.64 no.
  Shoot: 29.22 cm.
  Shoot, average weight per plant on dry basis: 4.073 g
  Total, average weight per plant on dry basis: 6.504 g
Rice [1]; 6 kg./ha.
  Main root: 10.19 cm.
  Roots, average weight per plant on dry basis: 3.123 g
  Secondary roots: 10.42 no.
  Shoot: 30.17 cm.
  Shoot, average weight per plant on dry basis: 4.209 g
  Total, average weight per plant on dry basis: 7.341 g
Agrostis segetum; Surface, 1 kg./ha.
  Weeding activity: 4
Agrostis segetum; Surface, 2 kg./ha.
  Weeding activity: 4
Agrostis segetum; Surface, 6 kg./ha.
  Weeding activity: 4
Agrostis segetum; [3]
  Weeding activity: 4
Agrostis segetum; [4]
  Weeding activity: 4
Agrostis segetum; [5]
  Weeding activity: 4
Lolium italicum; Surface, 1 kg./ha.
  Weeding activity: 4
Lolium italicum; Surface, 2 kg./ha.
  Weeding activity: 4
Lolium italicum; Surface, 4 kg./ha.
  Weeding activity: 4
Lolium italicum; Surface, 6 kg./ha.
  Weeding activity: 4
Lolium italicum; [3]
  Weeding activity: 4
Lolium italicum; [4]
  Weeding activity: 4
Lolium italicum; [5]
  Weeding activity: 4
Avena fatua; Surface, 1 kg./ha.
  Weeding activity: 2/3
Avena fatua; Surface, 2 kg./ha.
  Weeding activity: 3
Avena fatua; Surface, 4 kg./ha.
  Weeding activity: 3
Avena fatua; Surface, 6 kg./ha.
  Weeding activity: 3
Avena fatua; [3]
  Weeding activity: 4
Avena fatua; [4]
  Weeding activity: 4
Avena fatua; [5]
  Weeding activity: 4
Digitaria sanguinalis; Surface, 1 kg./ha.
  Weeding activity: 3
Digitaria sanguinalis; Surface, 2 kg./ha.
  Weeding activity: 4
Digitaria sanguinalis; Surface, 4 kg./ha.
  Weeding activity: 4
Digitaria sanguinalis; Surface, 6 kg./ha.
  Weeding activity: 4
Digitaria sanguinalis; [3]
  Weeding activity: 4
Digitaria sanguinalis; [4]
  Weeding activity: 4
Digitaria sanguinalis; [5]
  Weeding activity: 4
Alopecurus myosiuroides; Surface, 1 kg./ha.
  Weeding activity: 1/2
Alopecurus myosiuroides; Surface, 2 kg./ha.
  Weeding activity: 2
Alopecurus myosiuroides; Surface, 4 kg./ha.
  Weeding activity: 3
Alopecurus myosiuroides; Surface, 6 kg./ha.
  Weeding activity: 4
Alopecurus myosiuroides; [3]
  Weeding activity: 4
Alopecurus myosiuroides; [4]
  Weeding activity: 4
Alopecurus myosiuroides; [5]
  Weeding activity: 4
Rice [2]; 4 kg./ha.
  Main root, average value per plant: 8.3 cm.
  Shoot, average value per plant: 17.8 cm.
  Sprouted plants: 60.0%
Rice [2]; 6 kg./ha.
  Main root, average value per plant: 10.4 cm.
  Shoot, average value per plant: 21.1 cm.
  Sprouted plants: 53.3%
Rice [2]; 8 kg./ha.
  Main root, average value per plant: 10.1 cm.
  Shoot, average value per plant: 23.9 cm.
  Sprouted plants: 77.7%
Rice plants; 4 kg./ha.
  Average height: about 60 cm.
Rice plants; 6 kg./ha.
  Average height: about 60 cm.
